Data reported in US5002948A, “3-[4-[4-substituted-1-piperazinyl]-1-butyl]-1H-2,3-dihydroindoles” (H. Lundbeck A/S, priority 1988, dated 1991).

Columns and labels:
[1] = molecular target: T1, 5-HT1A (Rattus norvegicus, UniProt P19327); assay: Antagonism of the discriminative stimulus properties induced by 8-OHDPAT in rats; format: in vivo, Male Wistar rats; parameters: from tissue; host or cells: whole living animal, male Wistar rats, s.c. dosing; conditions: rat, sc, s.c. before 8-OHDPAT; rats trained at 0.4 mg/kg i.p.; inhibition of drug responding; read-out: ED50, 8-OH DPAT cue antagonism
T1 sequence (P19327 1-422): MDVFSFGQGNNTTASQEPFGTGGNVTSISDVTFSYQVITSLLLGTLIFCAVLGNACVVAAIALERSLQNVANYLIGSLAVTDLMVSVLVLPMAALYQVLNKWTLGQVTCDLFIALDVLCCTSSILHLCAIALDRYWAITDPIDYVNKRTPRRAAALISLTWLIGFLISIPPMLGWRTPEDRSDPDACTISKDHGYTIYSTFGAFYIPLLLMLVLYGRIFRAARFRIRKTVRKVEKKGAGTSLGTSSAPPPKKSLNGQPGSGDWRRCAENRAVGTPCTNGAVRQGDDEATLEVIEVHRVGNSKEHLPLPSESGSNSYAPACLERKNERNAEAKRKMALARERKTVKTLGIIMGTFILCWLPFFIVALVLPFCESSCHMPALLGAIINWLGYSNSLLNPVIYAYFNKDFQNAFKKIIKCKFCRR
Experimental: ANTAGONISM OF THE DISCRIMINATIVE STIMULUS PROPERTIES INDUCED BY 8-OHDPAT IN RATS.
This test model is used to determine the antagonist effects of a test compound on 5-HT1A receptors in vivo. A related method is described by Tricklebank, M. D., J. Neill, E. J. Kidd and J. R. Fozard, Eur. J. Pharmacol. 133, 47-56, 1987; Arnt. J., Pharmacology & Toxicology 64, 165-172, 1989.
Male Wistar rats are trained to discriminate between 8-OHDPAT (0.4 mg/kg, i.p., 15 min. pretreatment) and physiological saline in operant chambers equipped with two response levers. Between the levers a dipper is placed, where water rewards (0.1 ml) are presented. The rats are water deprived for at least 24 h and work in a fixed ratio (FR) schedule (final FR=32).
Following 8-OHDPAT administration responding is reinforced only on a designated (drug) lever, whereas responding on the opposite lever has no consequences. Following saline administration responding is reinforced on the lever opposite to the drug lever. Drug and saline trials alternate randomly between training days, although the same treatment is given maximally at 3 consecutive days. The level of discrimination occuracy is expressed as the per cent drug responses and is calculated as the number of correct responses×100 divided by the sum of the correct and incorrect responses before the first reward. When stable occuracy (mean correct responding=90 per cent; individual rats at least 75 per cent correct responding) is obtained test sessions are included between training days. Test compound is injected s.c. at appropriate time before 8-OHDPAT and the test begins 15 min after 8-OHDPAT injection. The test trial is terminated when a total of 32 responses are made on either lever or when 20 min have elapsed. No reward is given and the rats have free access to water for 20-30 min after the test. The effects are expressed as per cent inhibition of drug responding. Only results from rats making at least 10 responses on one lever are included in data analysis. Furthermore, only test sessions in which at least half of the rats respond are included.
The per cent inhibition of drug response obtained for each dose of test compound is used to calculate ED50 values by log-probit analysis.

[2] = molecular target: T1, 5-HT1A; assay: Generalization to discriminative stimulus properties induced by 8-OHDPAT in rats (agonism); format: in vivo, Male Wistar rats; parameters: from tissue; host or cells: whole living animal, male Wistar rats, s.c. dosing; conditions: rat, sc, read-out: ED50, 8-OH DPAT cue agonism
From the text: GENERALIZATION TO DISCRIMINATIVE STIMULUS PROPERTIES INDUCED BY 8-OHDPAT IN RATS.
This test model is used to determine the agonist effects of a test compound on 5-HT1A receptors in vivo. A related method is described by Tricklebank, M. D., J. Neill, E. J. Kidd and J. R. Fozard, Eur. J. Pharmacol. 133, 37-56, 1987; Arnt, J., Pharmacology & Toxicology 64, 165-172, 1989.
The procedure is the same as for the antagonism test mentioned above, except that the test compound is substituted for 8-OHDPAT and injected s.c. usually 30 minutes or 45 minutes respectively before beginning of the test.
The per cent drug response obtained for each dose of test compound is used to calculate ED50 values by log-probit analysis.

[3] = molecular target: T1, 5-HT1A; assay: Inhibition of 5-methoxy-N,N-dimethyltryptamine (5-MeODMT) induced 5-HT syndrome in rats; format: in vivo, Male Wistar rats; parameters: Male Wistar rats (Mol:Wist) weighing 170-240 g are used; from tissue; host or cells: whole living animal, male Wistar rats (Mol:Wist), s.c. dosing; conditions: rat, sc
From the text: INHIBITION OF 5-METHOXY-N,N-[…] INDUCED 5-HT SYNDROME IN RATS
The so-called 5-HT syndrome is a characteristic behaviour pattern which is induced by 5-HT agonists with effects on 5-HT, possibly 5-HT1A receptors, although lack of specific antagonists make it difficult to evaluate specificity (Smith, L. M. and S. J. Peroutka, Pharmacol. Biochem. & Behaviour 24, 1513-1519, 1986; Tricklebank, M. et al., Eur. J. Pharmacol. 117, 15-24, 1985).
Male Wistar rats (Mol:Wist) weighing 170-240 g are used. Test substrate is injected subcutaneously 30 min. before 5-methoxy-N,N-dimethyltryptamine 5 mg/kg, s.c. Four rats are used for each dose. A control group pretreated with saline is included each test day. Ten, 15 and 20 min later the rats are observed for presence of serotonin (5-HT) syndrome: (1) forepaw treading ("piano playing"), (2) head weaving and (3) hindleg abduction. Further, flat motility is scored. Each part of the syndrome is scored as follows: marked effect (score 2), weak syndrome (score 1) and no effect (score 0). The scores of the three observation times are added. Thus the maximum obtainable score for four rats is 24. The effect of the test substance is expressed as per cent inhibition relative to the control group.
The per cent inhibition of the piano playing syndrome is used as the response, and ED50 values are calculated by log-prohibit analysis.

[4] = molecular target: T2, serotonin 5-HT1A receptors (Rattus norvegicus, UniProt P19327); assay: Inhibition of 3H-8-OHDPAT binding to serotonin 5-HT1A receptors in rat brain in vitro; conditions: 3H-8-OHDPAT 1 nM, rat brain membranes minus cerebellum, 37° C., 15 min; read-out: IC50 (3H 8-OH DPAT binding)
T2 construct: membranes from rat brain minus cerebellum; from tissue; host or cells: brain minus cerebellum of male Wistar (Mol:Wist) rats, membranes
T2 sequence (P19327 1-422): T1 sequence (P19327 1-422)
Experimental: INHIBITION OF ^3 H-8-OHDPAT BINDING TO SEROTONIN 5-HT1A RECEPTORS IN A RAT BRAIN IN VITRO
By this method the inhibition by drugs of the binding of ^3 H-8-OHDPAT (1 nM) to serotonin 5-HT1A receptors in membranes from rat brain minus cerebellum is determined in vitro.
Male Wistar (Mol:Wist) rats (125-250 g) are sacrificed and the brain is dissected and weighed. The brain tissue minus cerebellum is homogenized (Ultra Turrax, 20 sec) in 10 ml of ice cold 50 mM Tris buffer pH 8.0 (at 25° C.) containing 120 mM NaCl, 4 mM CaCl2 and 4 mM MgCl2. The homogenate is centrifuged at 20,000 g for 10 min at 4° C. The pellet is homogenized in 10 ml of buffer and incubated at 37° C. for 10 min. The homogenate is centrifuged as above and the pellet is homogenized in 100 vol (w/v) ice cold buffer containing 10 μ M of parglyine.
Incubation tubes kept on ice in triplicate receive 100 μl of drug solution in water (or water for total binding) and 1000 μ l of tissue suspension (final tissue content corresponds to 10 mg original tissue). The binding experiment is initiated by addition of 100 μ l of ^3 H-8-OHDPAT (final concentration 1 nM) and by placing the tubes in a 37° C. water bath. After incubation for 15 min the samples are filtered under vacuum (0-50 mBar) through Whatman GF/F filters ([…]). The tubes are rinsed with 5 ml ice cold 0.9% NaCl which are then poured on the filters. Thereafter, the filters are washed with 2×5 ml 0.9% NaCl. The filters are placed in counting vials and 4 ml of appropriate scintillation fluid (e.g. Picofluor™15) are added. After shaking for 1 h and storage 2 h in the dark the content of radioactivity is determined by liquid scintillation counting. Specific binding is obtained by subtracting the nonspecific binding in the presence of 10 μ M of 5-HT.
For determination of the inhibition of binding five concentrations of drugs covering 3 decades are used.
The IC50 -value is determined as the concentration, at which the binding is 50% of the total binding in control samples minus the nonspecific binding in the presence of 10 μM of 5-HT.
^3 H-8-OHDPAT from Amersham International plc. England. Specific activity approximately 200 Ci/mmol).

[5] = usually 30 or 45 min before test, substituted for 8-OHDPAT, per cent drug response

Compound | ED50 [3] [µmol/kg] | IC50 [4] [nM] | other results
O=C1CC2(CCCC2)CC(=O)N1CCCCN1CCN(c2ncccn2)CC1 [buspirone, reference compound] | 4.3 | – | ED50 [1]: > 0.8 µmol/kg; ED50 [2, 5]: 0.62 µmol/kg
CC1(C)CC(=O)N(CCCCN2CCN(c3ncccn3)CC2)C(=O)C1 [gepirone, reference compound] | 32 | – | ED50 [2]: 0.81 µmol/kg
COc1ccccc1N1CCN(CCCCC2CNc3cc(Cl)ccc32)CC1 (stereo not shown) [Compound 3f, 6-chloro-3-[4-[4-(2-methoxyphenyl)-1-piperazinyl]-1-butyl]-1H-2,3-dihydroindole] | – | 5.8 | –
COc1ccccc1N1CCN(CCCCC2CNc3ccc(Cl)cc32)CC1 (stereo not shown) [Compound 3e, 5-chloro-3-[4-[4-(2-methoxyphenyl)-1-piperazinyl]-1-butyl]-1H-2,3-dihydroindole] | – | 9.2 | –
COc1ccccc1N1CCN(CCCCc2c[nH]c3cc(Cl)ccc23)CC1 [Compound 1b, 6-Chloro-3-[4-[4-(2-methoxyphenyl)-1-piperazinyl]-1-butyl]-1H-indole] | – | 10 | –
O=C1c2ccccc2S(=O)(=O)N1CCCCN1CCN(c2ncccn2)CC1 [ipsapirone, reference compound] | 26 | 17 | ED50 [2, 5]: 1.8 µmol/kg
Fc1ccc2c(c1)C(CCCCN1CCN(c3cccc4c3OCC4)CC1)CN2 (stereo not shown) [Compound 3m, 3-[4-[4-(2,3-dihydro-7-benzofuranyl)-1-piperazinyl]-1-butyl]-5-fluoro-1H-2,3-dihydroindole] | – | 5.7 | –
Fc1ccc2[nH]cc(CCCCN3CCN(c4cccc5c4OCCO5)CC3)c2c1 [Compound 2d, 3-[4-[4-(1,4-benzodioxan-5-yl)-1-piperazinyl]-1-butyl]-5-fluoro-1H-indole] | – | 3.7 | –
